Reference: patent publication US11247965B2 (VenatoRx Pharmaceuticals, Inc., priority 2017, dated 2022)
Like-named read-outs stand apart in the source and are kept apart here.

Key:
[1] = In vitro cytotoxicity, MTT cell viability assay in HepG2 cells; assay type: cell-based; details: human
Experimental: To evaluate antiviral selectivity, the cytotoxic activity of each compound was determined using a standard cell viability assay performed on the parental HepG2 cell line. Cell viability was determined by measuring the conversion of 3-(4,5-dimethylthiazol-2-yl)-2,5-diphenyltetrazolium bromide (MTT) to the insoluble formazan salt crystal that occurs in live cells. Briefly, HepG2 cells were seeded in 96-well plates at a density of 20,000 cells per well in EMEM+10% FBS (complete growth medium) and allowed to adhere overnight in a 37° C., 5% CO2 humidified incubator. The next day, test agents were prepared by performing 8 half-log10 serial dilutions in 100% DMSO at 200× the final desired concentration in the assay. Compounds were tested over a range of concentrations from 30 μM to 1.0 nM in the assay. HepG2 cells were incubated in the presence of various concentrations of CAMs for 7 days in a 37° C., 5% CO2 humidified incubator. At the completion of the 7-day incubation period, MTT reagent was added to each well and the mixture was incubated for an additional 3-4 hours. At the completion of the incubation period, all wells were aspirated to remove the culture medium. The formazan crystals were solubilized from the cell monolayers with 100% DMSO. Plates were briefly mixed on an orbital shaker and absorbance was measured at 492 nm using a Perkin-Elmer EnVision multi-label plate reader. All absorbance values were converted to a percentage of the signal obtained from the vehicle treated controls. Absorbance values at 492 nm are directly proportional to the number of viable cells present in the sample. A CC50 value (cytotoxic concentration that results in loss of 50% cell viability) was calculated from the dose-response curve by 4-parameter, non-linear regression analysis using the GraphPad Prism software. The positive control compound, staurosporine, reduced the viability of HepG2 cells in a dose-dependent manner (CC50=100 nM).

[2] = test system: HBV replication in HepAD38 cells; assay: Anti-HBV activity in HepAD38 cells, extracellular HBV DNA by QPCR; assay type: cell-based, HBV (genotype D, serotype ayw); details: Hepatitis B virus, HePAD38, 168 h
Experimental: The anti-HBV activity of the Capsid Assembly Modulators (CAMs) was evaluated in a cell based assay utilizing the human hepatoma cell line HepAD38 (Ladner, S K., et al., 1998). HepAD38 cells were derived from the parental line, HepG2, that were stably transfected with a construct containing an HBV genome (genotype D, serotype ayw) under the control of a tetracycline repressible CMV promoter. Upon removal of tetracycline, viral pre-genomic RNA (pgRNA) and mRNAs are expressed and infectious viral particles are assembled and secreted into the culture medium providing a reliable, robust system to measure multiple steps of the HBV life cycle. Disruption of capsid formation results in reduced levels of DNA-containing virus particles that are released into the culture supernatant. To quantify the effect of CAMs on HBV replication, we developed a sensitive QPCR-based assay that measures extracellular HBV DNA levels upon treatment of HepAD38 cells with various concentrations of test compounds.
HepAD38 cells were maintained in DMEM/F12 medium containing 10% FBS, 400 μg/mL G418 and 0.3 μg/mL tetracycline (tet+medium) to maintain repression of HBV replication. To evaluate each compound, HepAD38 cells were seeded into 24-well collagen coated culture plates (Corning BioCoat) at a density of 200,000 cells per well in 1 mL of tet+medium and allowed to adhere overnight at 37° C., 5% CO2 in a humidified incubator. The following day, test articles were subjected to half-logo serial dilutions, ranging from 30 μM to 10 nM, in 100% DMSO at 200× the desired final assay concentration. Tetracycline was removed from the cells by aspirating the tet+medium and washing the cells once with growth medium lacking tetracycline (tet-). Various concentrations of each compound were added to the appropriate wells (1:200 dilution) and the plates were returned to the incubator. Following 7 days of incubation, culture supernatants were harvested and HBV DNA levels were evaluated by QPCR and compared to the vehicle treated control wells (i.e. DMSO alone).
To quantify HBV DNA levels, cell culture supernatants were diluted 1:10 in sterile, nuclease-free water (Gibco). The diluted supernatants were subsequently added to a PCR master mix containing 1× Roche Light Cycler Master Mix, 0.5 μM forward primer, 0.5 μM reverse primer (Fwd:
0.2 μM Roche Universal Probe Library Probe 25. The volume was brought to 20 μL with nuclease-free water and amplification of the HBV target sequence was performed using a Roche LightCycler 480 QPCR instrument. PCR extended out to 45 cycles with each cycle consisting of a denaturation step at 95° C. for 10 sec., followed by an annealing step at 60° C. for 10 sec. and a brief extension step at 72° C. for 1 sec.
Extracellular HBV DNA levels, expressed in copies/mL, were determined by comparison to a standard curve (10^2-10^9 copies/mL) using the Roche LightCycler analysis software. These values were subsequently converted to percent inhibition of HBV replication by dividing the HBV DNA levels in the experimental samples with those obtained from the vehicle control (˜1-2×10^5 copies/mL). Potency, expressed as an EC50 (the effective concentration required to inhibit […] of HBV replication), was calculated from the dose-response curve using a 4-parameter non-linear regression analysis (GraphPad Prism). The nucleoside analog inhibitor entecavir was used as a positive control to validate each assay run. The EC50 value of entecavir in the HepAD38 assay was 0.5 nM, as previously reported in the literature.

[3] = read-out: Anti-HBV EC50, HepAD38 cells, extracellular HBV DNA by QPCR, 7 days of incubation

Compound | CC50 at 7 days ([1]; Cytotoxicity CC50) | EC50 [2, 3] | EC50 ([2]; positive control, HepAD38 cells, 7 days incubation, extracellular HBV DNA, read-out: EC50 in the HepAD38 assay) | CC50 at 7 days ([1]; positive control, HepG2 cells, 7 days incubation, MTT, read-out: CC50, viability of HepG2 cells)
Cc1cc(NC(=O)c2ccc(Cl)c(C(F)(F)C(=O)N3CC[C@@H](O)[C@H](O)C3)c2)ccc1F (racemic) [Example 56, (±)-4-chloro-3-(2-(3,4-dihydroxypiperidin-1-yl)-1,1-difluoro-2-oxoethyl)-N-(4-fluoro-3-methylphenyl)benzamide] | > 30 µM | < 5 µM | – | –
CCC(C)NC(=O)C(F)(F)c1cc(C(=O)Nc2ccc(F)c(F)c2)ccc1F (stereo not shown) [Example 1, 3-(2-(sec-butylamino)-1,1-difluoro-2-oxoethyl)-N-(3,4-difluorophenyl)-4-fluorobenzamide] | 5 to 30 µM | < 5 µM | – | –
O=C(Nc1ccc(F)c(F)c1)c1ccc(F)c(C(F)(F)C(=O)N2CCC(O)CC2)c1 [Example 2, 3-(1,1-difluoro-2-(4-hydroxypiperidin-1-yl)-2-oxoethyl)-N-(3,4-difluorophenyl)-4-fluorobenzamide] | 5 to 30 µM | < 5 µM | – | –
O=C(Nc1ccc(F)c(F)c1)c1ccc(F)c(C(F)(F)C(=O)N[C@H]2CCOC2)c1 [Example 3, (S)-3-(1,1-difluoro-2-oxo-2-((tetrahydrofuran-3-yl)amino)ethyl)-N-(3,4-difluorophenyl)-4-fluorobenzamide] | 5 to 30 µM | 5 to 30 µM | – | –
O=C(Nc1ccc(F)c(F)c1)c1ccc(F)c(C(F)(F)C(=O)N2CCOCC2)c1 [Example 4, 3-(1,1-difluoro-2-morpholino-2-oxoethyl)-N-(3,4-difluorophenyl)-4-fluorobenzamide] | 5 to 30 µM | 5 to 30 µM | – | –
O=C(Nc1ccc(F)c(F)c1)c1ccc(F)c(C(F)(F)C(=O)NC2CCOCC2)c1 [Example 5, 3-(1,1-difluoro-2-oxo-2-((tetrahydro-2H-pyran-4-yl)amino)ethyl)-N-(3,4-difluorophenyl)-4-fluorobenzamide] | 5 to 30 µM | 5 to 30 µM | – | –
O=C(Nc1ccc(F)c(F)c1)c1ccc(F)c(C(F)(F)C(=O)NCC2COCCO2)c1 (stereo not shown) [Example 6, 3-(2-(((1,4-dioxan-2-yl)methyl)amino)-1,1-difluoro-2-oxoethyl)-N-(3,4-difluorophenyl)-4-fluorobenzamide] | 5 to 30 µM | 5 to 30 µM | – | –
CC(C)NC(=O)C(F)(F)c1cc(C(=O)Nc2ccc(F)c(F)c2)ccc1F [Example 7, 3-(1,1-difluoro-2-(isopropylamino)-2-oxoethyl)-N-(3,4-difluorophenyl)-4-fluorobenzamide] | 5 to 30 µM | 5 to 30 µM | – | –
O=C(Nc1ccc(F)c(F)c1)c1ccc(F)c(C(F)(F)C(=O)NC2CCCCC2)c1 [Example 8, 3-(2-(cyclohexylamino)-1,1-difluoro-2-oxoethyl)-N-(3,4-difluorophenyl)-4-fluorobenzamide] | 5 to 30 µM | 5 to 30 µM | – | –
Cc1ccc(C(=O)Nc2ccc(F)c(F)c2)cc1C(F)(F)C(=O)NC(C)C [Example 9, 3-(1,1-difluoro-2-(isopropylamino)-2-oxoethyl)-N-(3,4-difluorophenyl)-4-methylbenzamide] | > 30 µM | > 30 µM | – | –
Cc1ccc(C(=O)Nc2ccc(F)c(F)c2)cc1C(F)(F)C(=O)N1CCC(O)CC1 [Example 10, 3-(1,1-difluoro-2-(4-hydroxypiperidin-1-yl)-2-oxoethyl)-N-(3,4-difluorophenyl)-4-methylbenzamide] | 5 to 30 µM | 5 to 30 µM | – | –
O=C(Nc1ccc(F)c(F)c1)c1ccc(F)c(C(F)(F)C(=O)N2CCCCC2)c1 [Example 11, 3-(1,1-difluoro-2-oxo-2-(piperidin-1-yl)ethyl)-N-(3,4-difluorophenyl)-4-fluorobenzamide] | 5 to 30 µM | 5 to 30 µM | – | –
O=C(Nc1ccc(F)c(F)c1)c1ccc(F)c(C(F)(F)C(=O)N2CC[C@H](O)C2)c1 [Example 12, (S)-3-(1,1-difluoro-2-(3-hydroxypyrrolidin-1-yl)-2-oxoethyl)-N-(3,4-difluorophenyl)-4-fluorobenzamide] | 5 to 30 µM | 5 to 30 µM | – | –
O=C(Nc1ccc(F)c(F)c1)c1ccc(F)c(C(F)(F)C(=O)N2CC[C@H](CO)C2)c1 [Example 13, (S)-3-(1,1-difluoro-2-(3-(hydroxymethyl)pyrrolidin-1-yl)-2-oxoethyl)-N-(3,4-difluorophenyl)-4-fluorobenzamide] | 5 to 30 µM | 5 to 30 µM | – | –
Cc1cc(NC(=O)c2cccc(C(F)(F)C(=O)N3CCC(O)CC3)c2)ccc1F [Example 14, 3-(1,1-difluoro-2-(4-hydroxypiperidin-1-yl)-2-oxoethyl)-N-(4-fluoro-3-methylphenyl)benzamide] | 5 to 30 µM | < 5 µM | – | –
O=C(Nc1ccc(F)c(F)c1)c1ccc(F)c(C(F)(F)C(=O)N2CCCC(O)C2)c1 (stereo not shown) [Example 15, 3-(1,1-difluoro-2-(3-hydroxypiperidin-1-yl)-2-oxoethyl)-N-(3,4-difluorophenyl)-4-fluorobenzamide] | 5 to 30 µM | < 5 µM | – | –
Cn1cc(C(=O)Nc2ccc(F)c(Cl)c2)cc1C(F)(F)C(=O)NC(C)(C)C [Example 139, 5-(2-(tert-butylamino)-1,1-difluoro-2-oxoethyl)-N-(3-chloro-4-fluorophenyl)-1-methyl-1H-pyrrole-3-carboxamide] | – | < 5 µM | – | –
Cc1cc(NC(=O)c2ccc(F)c(C(F)(F)C(=O)N3CCn4c(cnc4C(F)(F)F)C3)c2)ccc1F [Example 312, 3-(1,1-difluoro-2-oxo-2-(3-(trifluoromethyl)-5,6-dihydroimidazo[1,5-a]pyrazin-7(8H)-yl)ethyl)-4-fluoro-N-(4-fluoro-3-methylphenyl)benzamide] | – | < 5 µM | – | –
Cc1cc(NC(=O)c2ccc(F)c(C(F)(F)C(=O)N3[C@@H]4CC[C@H]3c3sc(N)nc3C4)c2)ccc1F [Example 313, 3-(2-((5R,8S)-2-amino-5,6,7,8-tetrahydro-4H-5,8-epiminocyclohepta[d]thiazol-9-yl)-1,1-difluoro-2-oxoethyl)-4-fluoro-N-(4-fluoro-3-methylphenyl)benzamide] | – | < 5 µM | – | –
C=C1[C@H](CO)[C@@H](O)C[C@@H]1n1cnc2c(=O)[nH]c(N)nc21 [entecavir, reference compound] | – | – | 0.0005 µM | –
CN[C@@H]1C[C@H]2O[C@@](C)([C@@H]1OC)n1c3ccccc3c3c4c(c5c6ccccc6n2c5c31)C(=O)NC4 [staurosporine, reference compound] | – | – | – | 0.1 µM
